Measured values reported in US7816408B2, “Calcium receptor active compounds” (NPS Pharmaceuticals, Inc., priority 2002, dated 2010).

Molecular target: T1, human calcium receptor (Homo sapiens, UniProt P41180)
T1 construct: expressed in transfected cells; host or cells: HEK293
T1 sequence (P41180 20-1078): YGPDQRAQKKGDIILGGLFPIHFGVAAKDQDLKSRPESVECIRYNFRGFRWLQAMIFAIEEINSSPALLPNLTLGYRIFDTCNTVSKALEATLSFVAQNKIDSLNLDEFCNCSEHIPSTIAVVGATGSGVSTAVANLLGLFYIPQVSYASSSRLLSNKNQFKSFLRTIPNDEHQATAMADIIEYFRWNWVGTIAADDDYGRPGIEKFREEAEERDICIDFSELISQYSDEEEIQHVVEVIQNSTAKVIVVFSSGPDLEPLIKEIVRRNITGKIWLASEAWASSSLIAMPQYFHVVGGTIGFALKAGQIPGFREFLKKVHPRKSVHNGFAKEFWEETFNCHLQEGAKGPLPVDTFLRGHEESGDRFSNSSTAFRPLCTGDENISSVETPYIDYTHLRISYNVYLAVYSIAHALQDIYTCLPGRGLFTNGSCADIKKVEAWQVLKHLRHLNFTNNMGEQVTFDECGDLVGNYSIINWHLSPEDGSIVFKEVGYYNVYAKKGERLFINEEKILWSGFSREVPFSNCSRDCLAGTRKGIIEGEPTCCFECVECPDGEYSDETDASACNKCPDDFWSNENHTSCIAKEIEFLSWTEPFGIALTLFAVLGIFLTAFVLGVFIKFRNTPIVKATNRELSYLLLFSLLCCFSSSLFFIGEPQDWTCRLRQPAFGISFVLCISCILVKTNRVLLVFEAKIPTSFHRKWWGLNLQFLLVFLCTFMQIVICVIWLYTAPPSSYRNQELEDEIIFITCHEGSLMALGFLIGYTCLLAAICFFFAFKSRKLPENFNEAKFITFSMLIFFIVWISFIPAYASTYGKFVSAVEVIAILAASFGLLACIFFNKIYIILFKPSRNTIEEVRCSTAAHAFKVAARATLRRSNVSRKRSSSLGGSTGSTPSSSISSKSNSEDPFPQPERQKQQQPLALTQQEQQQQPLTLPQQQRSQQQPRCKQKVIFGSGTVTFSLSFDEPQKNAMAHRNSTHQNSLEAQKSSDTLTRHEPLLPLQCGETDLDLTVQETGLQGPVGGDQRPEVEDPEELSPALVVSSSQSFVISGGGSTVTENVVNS
Assay: Activity on calcium receptors: fluo-3 fluorescence in HEK293 cells transfected with human calcium receptor gene
Assay type: cell-based
Details: HEK293 cells transfected with plasmid pHuPCaR4.0 (human calcium receptor gene), loaded with fluo-3; 1 mM CaCl2, 1 mM MgCl2
Method: The activities of the compounds of the present invention on calcium receptors were measured. The measurement was performed in accordance with the method described in Example 4 of Nemeth et al., PCT/US95/13704 (International Publication No. WO96/12697). In brief, HEK293 cells were transfected with a plasmid pHuPCaR4.0 containing a human calcium receptor gene and loaded with fluo-3. The loading was carried out by incubating the cells at 37° C. for 1 hour in Dulbecco's modified Eagle's medium which contained about 5 μM of fluo-3/AM and had been buffered with 20 mM HEPES. Next, the cells were rinsed with Hank's balanced salt solution which contained 1 mM CaCl2 and 1 mM MgCl2 and had been buffered with 20 mM HEPES. Then each test compound was added to the cells and the fluorescence was measured with the use of an excitation wavelength of 485 nm and an emission wavelength of 540 nm.

SMILES	EC50 [µM]
CC(NCCCOc1ccc2[nH]ccc2c1)c1cccc2ccccc12 (stereo not drawn) [Compound 112]	0.078
COc1cccc(C(C)NCCCCCCCCSc2cccc(Br)c2)c1 (stereo not drawn) [Compound K-2051]	0.34
COc1cccc(C(C)NCCCCCCSc2ccccc2Cl)c1 (stereo not drawn) [Compound 26]	1.8
COc1cccc(C(C)NCCCOC2c3ccccc3-c3ccccc32)c1 (stereo not drawn) [Compound 56]	0.28
C[C@@H](NCCC(=O)N(Cc1ccccc1)Cc1cccc(Cl)c1)c1cccc2ccccc12 [Compound K-2252]	0.018
COc1cccc(C(C)NCCCCCSc2ccccc2Br)c1 (stereo not drawn) [Compound K-2018]	0.33
COc1cccc(C(C)NCCCCCCCSc2cccc(Br)c2)c1 (stereo not drawn) [Compound K-2050]	0.55
COc1cccc([C@@H](C)NCCSc2cc(Cl)ccc2Cl)c1 [Compound K-2066]	0.26
COc1cccc(C(C)NCCCSc2ccc(Cl)cc2)c1 (stereo not drawn) [Compound 28]	1.6
COc1cccc(C(C)NCCCOc2ccc(Cl)cc2)c1 (stereo not drawn) [Compound 68]	0.65
COc1cccc(C(C)NCCCSc2cccc(Br)c2)c1 (stereo not drawn) [Compound K-2046]	0.14
COc1cccc(C(C)NCCCCCCOc2ccc(Cl)cc2)c1 (stereo not drawn) [Compound 18]	0.75
COc1cccc(C(C)NCCCOc2ccccc2Cl)c1 (stereo not drawn) [Compound 62]	0.509
CC(NCCSc1cc(Cl)ccc1Cl)c1cccc(OCCCCCCCl)c1 (racemic) [Compound K-2260, (±)-N-(1-(3-(6-chlorohexyloxy)phenyl)ethyl)-2-(2′,5′-dichlorophenylthio)ethylamine]	0.096
COc1ccc(CN(Cc2ccc(O)cc2)C(=O)CCNC(C)c2cccc3ccccc23)cc1 (stereo not drawn) [Compound K-2312]	0.08
C[C@@H](NCCCCCCCSc1c(F)c(F)cc(F)c1F)c1cccc2ccccc12 [Compound S-165]	0.15
COc1cccc(C(C)NCCSc2ccccc2Br)c1 (stereo not drawn) [Compound K-2015]	0.49
COc1cccc(C(C)NCCCCCCOc2ccccc2Cl)c1 (stereo not drawn) [Compound 6]	7.6
COc1cccc(C(C)NCCSc2cccc(Br)c2)c1 (stereo not drawn) [Compound K-2045]	0.87
COc1cccc(C(C)NCCCCCCOc2ccc(Br)cc2)c1 (stereo not drawn) [Compound K-2006]	0.77
COc1cccc(C(C)NCCCCSc2cccc(C(F)(F)F)c2)c1 (stereo not drawn) [Compound K-2010]	0.14
CC(NCCC(=O)N(Cc1ccccc1Cl)Cc1ccccc1Cl)c1cccc2ccccc12 (stereo not drawn) [Compound K-2254]	0.088
COc1cccc(C(C)NCCCCOc2ccc(Br)cc2)c1 (stereo not drawn) [Compound K-2004]	0.42
COc1cccc(C(C)NCCCCCCSc2ccc(C(F)(F)F)cc2)c1 (stereo not drawn) [Compound K-2058]	0.39
COc1cccc(C(C)NCCCCSc2ccc([N+](=O)[O-])cc2)c1 (stereo not drawn) [Compound K-2033]	0.35
COc1cccc(C(C)NCCCSc2ccc3ccccc3c2)c1 (stereo not drawn) [Compound 77]	1
CC(NCCSc1cccc(C(F)(F)F)c1)c1cccc2ccccc12 (stereo not drawn) [Compound K-2275]	0.27

SMILES	EC50 [µM]
Cc1ccc(C)c(SCCCCCCCCCCCCNC(C)c2cccc3ccccc23)c1 (stereo not drawn) [Compound S-16]	0.11
CC(C)c1ccccc1SCCNC(C)c1cccc2ccccc12 (stereo not drawn) [Compound S-202]	0.15
COc1cccc(C(C)NCCCSc2c(Cl)cccc2Cl)c1 (stereo not drawn) [Compound K-2084]	0.12
COc1cccc([C@@H](C)NCCCCCCCOc2ccc(Br)cc2)c1 [Compound K-2007]	0.47
COc1cccc(C(C)NCCCNC(C)c2cccc(OC)c2)c1 (stereo not drawn) [Compound 88]	3.2
CC(NCCC(=O)N(Cc1ccccc1)Cc1ccccc1Cl)c1cccc2ccccc12 (stereo not drawn) [Compound K-2249]	0.082
C[C@@H](NCCC(=O)N(Cc1ccc(Cl)cc1)Cc1ccc(Cl)cc1)c1cccc2ccccc12 [Compound K-2243, N1,N1-di(4-chlorobenzyl)-3-{[(1R)-1-(1-naphthyl)ethyl]amino}propanamide]	0.092
C[C@@H](NCCCCCCCCCCCCSc1c(F)c(F)c(C(F)(F)F)c(F)c1F)c1cccc2ccccc12 [Compound S-201]	0.18
Cc1ccc(SCCCCNC(C)c2cccc3ccccc23)cc1C (stereo not drawn) [Compound S-52]	0.16
COc1cccc(C(C)NCCCCCSc2ccc([N+](=O)[O-])cc2)c1 (stereo not drawn) [Compound K-2034]	0.061
COc1cccc(C(C)NCCCCSc2ccc(Cl)c(Cl)c2)c1 (stereo not drawn) [Compound K-2079]	0.2
COc1cccc(C(C)NCCCCCOc2cccc(Cl)c2)c1 (stereo not drawn) [Compound 10]	1
COc1cccc(C(C)NCCCCCCSc2cccc(Br)c2)c1 (stereo not drawn) [Compound K-2049]	0.83
COc1cccc(C(C)NCCCCCSc2ccccc2Cl)c1 (stereo not drawn) [Compound 24]	0.44
COc1cccc(C(C)NCCCCCSc2nc3ccccc3s2)c1 (stereo not drawn) [Compound 38]	0.98
COc1cccc(C(C)NCCCCCCCSc2ccc(Cl)c(Cl)c2)c1 (stereo not drawn) [Compound K-2082]	2.81
Cc1cc(C)cc(SCCCCCCCN[C@H](C)c2cccc3ccccc23)c1 [Compound S-69]	0.31
COc1ccc(SCCCCN[C@H](C)c2cccc3ccccc23)cc1 [Compound K-2314]	0.29
COc1cccc([C@@H](C)NCCCCCCSc2nc3ccccc3s2)c1 [Compound 40]	5.1
COc1cccc(C(C)NCCCCCOc2ccc(Br)cc2)c1 (stereo not drawn) [Compound K-2005]	0.43
C[C@@H](NCCCCCSc1ccc(C(F)(F)F)cc1)c1cccc2ccccc12 [Compound K-2076, N-[(1R)-1-(1-naphthyl)ethyl]-N-(5-{[4-(trifluoromethyl)phenyl]thio}pentyl)amine]	6.2
COc1cccc(C(C)NCCCSc2ccc(Cl)c(Cl)c2)c1 (stereo not drawn) [Compound K-2078]	0.17
COc1cccc(C(C)NCCCSc2ccccc2Cl)c1 (stereo not drawn) [Compound 20]	3.2
COc1cccc(C(C)NCCCCCCSc2ccc([N+](=O)[O-])cc2)c1 (stereo not drawn) [Compound K-2035]	0.22
Cc1ccc(COc2cccc(C(C)NCCSc3cc(Cl)ccc3Cl)c2)cc1 (racemic) [Compound K-2268, (±)-N-(1-(3-(4-methylbenzyloxy)phenyl)ethyl)-2-(2′,5′-dichlorophenylthio)ethylamine]	0.089
COc1cccc(C(C)NCCCCCCOc2cccc(Cl)c2)c1 (stereo not drawn) [Compound 12]	1.2

Test system: normal male SD rats
Assay: Plasma Ca^2+ level of rats after single oral administration
Assay type: in vivo
Details: rat, mean of six animals, 1 hr after single oral dose 30 μmol/kg; vehicle 10% cyclodextrin (** 1% sodium-CMC)
Method: The compound of the present invention was administered to rats so as to examine the effects of the compound on the plasma calcium ion level and serum PTH level. The test was performed by orally administering single dose of the compound of the invention or a control compound to normal male SD rats with six animals in each group.
To the group 1 was administered as a control a 10% cyclodextrin aqueous solution in a dose of 2.5 ml/kg. To the group 2 was administered as a reference (R)-N-(3-(2-chlorophenyl)propyl)-1-(3-methoxyphenyl)ethylamine (KRN568) dissolved in a 10% cyclodextrin aqueous solution in a dose of 30 μmol/kg. To the group 3 was administered the compound of the present invention dissolved in a 10% cyclodextrin aqueous solution in a dose of 30 μmol/kg, provided that 1% sodium-CMC aqueous solution was used in place of 10% cyclodextrin aqueous solution for the compounds marked with ** in Table 2.
Blood of each rat was collected from the tail tip before the administration and 30 minutes and 1, 2, 4, 8 and 24 hours thereafter (or at the time indicated in Table 2), and the plasma Ca^2+ level and serum PTH level were measured. The data of the serum PTH level were statistically processed by the multiple comparison analysis in accordance with Steel's calibration by using the group 1 as the control.

SMILES	Plasma Ca^2+ (mmol/l) 1 hr [mmol/L]
COc1cccc([C@@H](C)NCCCc2ccccc2Cl)c1 [KRN568, (R)-N-(3-(2-chlorophenyl)propyl)-1-(3-methoxyphenyl)ethylamine, reference compound]	1.305

Same assay, conditions: rat, mean of six animals, 2 hr after single oral dose 30 μmol/kg; vehicle 10% cyclodextrin (** 1% sodium-CMC)

SMILES	Plasma Ca^2+ (mmol/l) 2 hr [mmol/L]
COc1cccc([C@@H](C)NCCCc2ccccc2Cl)c1 [KRN568, (R)-N-(3-(2-chlorophenyl)propyl)-1-(3-methoxyphenyl)ethylamine, reference compound]	1.237

Same assay, conditions: rat, mean of six animals, 4 hr after single oral dose 30 μmol/kg; vehicle 10% cyclodextrin (** 1% sodium-CMC)

SMILES	Plasma Ca^2+ (mmol/l) 4 hr [mmol/L]
COc1cccc([C@@H](C)NCCCc2ccccc2Cl)c1 [KRN568, (R)-N-(3-(2-chlorophenyl)propyl)-1-(3-methoxyphenyl)ethylamine, reference compound]	1.290

Same assay, conditions: rat, mean of six animals, 8 hr after single oral dose 30 μmol/kg; vehicle 10% cyclodextrin (** 1% sodium-CMC)

SMILES	Plasma Ca^2+ (mmol/l) 8 hr [mmol/L]
COc1cccc([C@@H](C)NCCCc2ccccc2Cl)c1 [KRN568, (R)-N-(3-(2-chlorophenyl)propyl)-1-(3-methoxyphenyl)ethylamine, reference compound]	1.340
